Assay results: patent US9695175B2, “Highly selective c-Met inhibitors as anticancer agents” (Crown Bioscience Inc. (Taiwan), priority 2012, dated 2017)
pIC50: −log10 of the molar value.

What was measured:
[1] = target: c-Met kinase (1038-1346AA) (Homo sapiens (Human), UniProt P08581); experiment: c-Met in vitro kinase assay (Lance Ultra ULight-TK); format: biochemical; conditions: c-Met kinase 12.5 nM, ATP 2.5 uM, 30° C.; read-out: c-Met Enzyme IC50
Description: c-Met In Vitro Kinase Assay [Method] Use Lance@Ultra Ulight™-TK test kits from PerKinElmer to evaluate the inhibition of c-Met kinase by the compounds [Instrument] ENVISION plate reader of PerKinElmer […] Then ATP (final concentration 2.5 uM) and kinase substrate (final concentration 50 nM) are added. […] After 1 hr, the plate is read at 615 nm and 665 nm. The ratio of […] at 665 nm and 615 nm is calculated and used for the data analysis as follows. This assay has a Minimum Significant Ratio (MSA) of 2-3. [Samples] All exampled compounds and Crizotinib as the positive control [Data Analysis] Background—the ratio of 665 nm/615 nm (no enzyme):0.003285 • Max—the ratio of 665 nm/615 nm (no test compound):0.075356 [formula] [Software] Use CBIS data analysis software to calculate IC50 values

[2] = target: c-Met protein in S114 cells (Homo sapiens (Human), UniProt P08581); experiment: S114 cell-based ELISA, phosphorylation of c-Met protein; conditions: 30 min compound incubation, phospho-c-Met ELISA
Chain of c-Met protein in S114 cells (P08581 25-1390): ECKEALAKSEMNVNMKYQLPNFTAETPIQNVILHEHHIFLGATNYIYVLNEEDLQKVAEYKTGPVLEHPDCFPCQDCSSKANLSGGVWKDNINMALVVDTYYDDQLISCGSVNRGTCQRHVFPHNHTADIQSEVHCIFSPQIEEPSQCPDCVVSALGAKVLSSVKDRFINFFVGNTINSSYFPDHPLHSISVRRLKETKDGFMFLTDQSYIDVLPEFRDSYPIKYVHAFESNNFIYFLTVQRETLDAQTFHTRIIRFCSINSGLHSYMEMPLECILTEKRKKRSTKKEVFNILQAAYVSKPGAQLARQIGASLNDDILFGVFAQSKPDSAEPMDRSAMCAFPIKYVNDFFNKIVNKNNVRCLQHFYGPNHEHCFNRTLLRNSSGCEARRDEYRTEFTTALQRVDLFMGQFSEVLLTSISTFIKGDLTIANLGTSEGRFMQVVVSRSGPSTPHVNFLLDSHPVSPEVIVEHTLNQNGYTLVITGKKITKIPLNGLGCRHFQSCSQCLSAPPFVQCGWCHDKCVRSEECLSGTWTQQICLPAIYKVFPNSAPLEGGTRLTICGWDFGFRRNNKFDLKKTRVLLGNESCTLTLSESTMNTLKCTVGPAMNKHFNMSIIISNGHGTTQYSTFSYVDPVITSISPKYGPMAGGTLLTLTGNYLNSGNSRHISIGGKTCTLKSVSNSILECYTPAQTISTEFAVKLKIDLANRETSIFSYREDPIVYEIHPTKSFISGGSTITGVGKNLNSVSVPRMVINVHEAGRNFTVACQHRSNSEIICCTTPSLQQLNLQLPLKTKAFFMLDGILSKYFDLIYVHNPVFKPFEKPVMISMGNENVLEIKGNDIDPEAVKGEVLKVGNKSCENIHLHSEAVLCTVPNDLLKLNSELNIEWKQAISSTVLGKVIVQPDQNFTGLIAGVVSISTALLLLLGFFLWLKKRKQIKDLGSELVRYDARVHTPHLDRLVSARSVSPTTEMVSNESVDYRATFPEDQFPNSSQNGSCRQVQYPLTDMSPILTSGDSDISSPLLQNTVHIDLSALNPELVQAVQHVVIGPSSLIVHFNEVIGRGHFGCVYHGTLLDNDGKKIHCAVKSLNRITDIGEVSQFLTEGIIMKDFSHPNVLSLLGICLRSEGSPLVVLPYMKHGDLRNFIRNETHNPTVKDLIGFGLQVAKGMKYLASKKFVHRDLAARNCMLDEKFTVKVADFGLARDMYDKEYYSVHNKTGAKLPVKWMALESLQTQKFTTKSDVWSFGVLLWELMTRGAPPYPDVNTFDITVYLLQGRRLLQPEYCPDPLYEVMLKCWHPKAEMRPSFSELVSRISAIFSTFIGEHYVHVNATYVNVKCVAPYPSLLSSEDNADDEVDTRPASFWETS
Description: Cell-Based ELISA [Method] Use ELISA to measure the phosphorylation of c-Met protein in […] cells [Instrument] ENVISION plate reader of PerKinElmer […] [Procedure] […] cells are cultured in DMEM medium (containing 10% FBS). When cells reach 80% confluency, they are collected by trypsinization and centrifugation at 800 rpm for 5 min. The cells are re-suspended in DMEM and adjusted to a density of 500,000 cells/mL. A 96-well plate is pretreated with a solution of Firbronectin in PBS (5 μg/mL) at 100 μL per well for 2 hr. The cell suspension is split into the 96-well culture plate at 100 uL per well and incubated (37° C., 5% CO2) overnight. The capture antibody is diluted with 1/2 Tris-ammonium bicarbonate buffer (1:1000) and transferred into a 96-well absorption plate (70 μL per well) at 4° C. overnight. The solution is discarded and the plate is washed with blocking buffer, followed by adding blocking buffer (150 μL per well), and kept at room temperature for 1 hr. The medium in the 96-well culture plate is discarded and the plate is washed with DMEM (without FBS). Then 80 μL of DMEM (without FBS) and 20 μL of test compound solution at various concentrations in DMEM (without FBS) are added. The culture plate is kept in a culture incubator for 30 min (37° C., 5% CO2). The cell culture medium is discarded and the culture plate is washed with PBS, followed by adding lysis buffer (50 μL per well) and incubated at 4° C. for 20 min. The solution in the absorption plate is discarded and the plate is washed with binding buffer. To each well of the absorption plate is added binding buffer (50 μL) and lysate (40 μL) from the above culture plate; then the plate is incubated at room temperature for 2 hours. The culture medium is discarded and the plate is washed twice with binding buffer, followed by adding a solution of 1st antibody (diluted with binding buffer 1:1000, 100 μL per well) and incubated at 37° C. for 1 hr. The solution is discarded and the plate is washed twice with binding buffer. Then a solution of 2nd antibody is added (100 μL per well) and incubated at 37° C. for another hour. The medium is discarded and the plate is washed twice with binding buffer and once with PBS. To each well, 100 μL of A.B.T.S solution is added and incubated at 37° C. for 30 min. Then OD405 is analyzed on an ENVISION plate reader. This assay has a Minimum Significant Ratio (MSA) of 2-3. [Samples] All exemplified compounds and Crizotinib as the positive control [Data Analysis] Background (no cell lysate): 0.084 • Max (no test compound): 0.517 [formula] [Software] Use CBIS data analysis software to calculate IC50 values

Chain of c-Met kinase (1038-1346AA) (P08581 1038-1346): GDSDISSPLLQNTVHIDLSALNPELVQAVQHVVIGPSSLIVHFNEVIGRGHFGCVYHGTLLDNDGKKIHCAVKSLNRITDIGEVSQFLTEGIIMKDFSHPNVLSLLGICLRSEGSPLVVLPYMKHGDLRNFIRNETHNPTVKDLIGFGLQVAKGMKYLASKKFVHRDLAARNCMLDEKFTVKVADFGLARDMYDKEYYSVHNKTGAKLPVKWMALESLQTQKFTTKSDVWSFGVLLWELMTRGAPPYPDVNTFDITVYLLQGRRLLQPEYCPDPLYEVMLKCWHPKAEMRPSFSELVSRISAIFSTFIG

With `Cn1cc2cc(C(F)(F)c3nnc4ccc(-c5ccc(C(=O)N6CCCC6)c(F)c5)nn34)c(F)cc2n1` [Example 25] as the compound, how does the pIC50 [1] read?
The pIC50 was 6.90.

What about the pIC50 [2] of the same compound?
Its pIC50 is 7.28.

Which results are given for `Cn1cc2cc(C(F)(F)c3nnc4ccc(-c5ccc(C(=O)N6CCOCC6)c(F)c5)nn34)c(F)cc2n1` [Example 26]?
pIC50 [1]: 6.45; pIC50 [2]: 6.52

How did the pIC50 [1] turn out when `CN1CCN(C(=O)c2ccc(-c3ccc4nnc(C(F)(F)c5cc6cn(C)nc6cc5F)n4n3)cc2F)CC1` [Example 27] was run?
The pIC50 was 6.83.

And the pIC50 [2]?
Its pIC50 is 6.49.

Which results are given for `CNC(=O)c1c(F)cc(-c2ccc3nnc(C(F)(F)c4cc5cn(C)nc5cc4F)n3n2)cc1F` [Example 28]?
pIC50 [1]: 7.56; pIC50 [2]: 7.85

`Cn1cc2cc(C(F)(F)c3nnc4ccc(-c5ccc(NC(=O)C6CC6)c(F)c5)nn34)c(F)cc2n1` [Example 29] was tested. Which pIC50 [1] did it give?
The pIC50 was 7.53.

What about the pIC50 [2] of the same compound?
Its pIC50 is 8.10.

With `CNC(=O)c1cc(-c2ccc3nnc(C(F)(F)c4cc5cn(C)nc5cc4F)n3n2)ccn1` [Example 30] as the compound, how does the pIC50 [1] read?
Its pIC50 is 7.29.

What about the pIC50 [2] of the same compound?
The pIC50 was 7.35.

How did the pIC50 [1] turn out when `CNC(=O)c1ccc(-c2ccc3nnc(C(F)(F)c4cc5cn(C)nc5cc4F)n3n2)cn1` [Example 31] was run?
The pIC50 was 7.09.

And the pIC50 [2]?
The pIC50 was 7.22.

How did the pIC50 [1] turn out when `Cc1cncc(-c2ccc3nnc(C(F)(F)c4cc5cn(C)nc5cc4F)n3n2)c1` [Example 32] was run?
The pIC50 was 6.96.

What about the pIC50 [2] of the same compound?
Its pIC50 is 7.42.

`Cn1cc2cc(C(F)(F)c3nnc4ccc(-c5cncc(F)c5)nn34)c(F)cc2n1` [Example 33] was tested. Which pIC50 [1] did it give?
Its pIC50 is 6.62.

What about the pIC50 [2] of the same compound?
The pIC50 was 6.68.

What does the source list for `Cn1cc2cc(C(F)(F)c3nnc4ccc(-c5cncc(Cl)c5)nn34)c(F)cc2n1` [Example 34]?
pIC50 [1]: 7.27; pIC50 [2]: 7.24

Which results are given for `Cn1cc2cc(C(F)(F)c3nnc4ccc(-c5ccc(C#N)nc5)nn34)c(F)cc2n1` [Example 35]?
pIC50 [1]: 7.19; pIC50 [2]: 7.06

With `Cc1cc(-c2ccc3nnc(C(F)(F)c4cc5cn(C)nc5cc4F)n3n2)ccn1` [Example 36] as the compound, how does the pIC50 [1] read?
The pIC50 was 6.95.

And the pIC50 [2]?
Its pIC50 is 7.47.

With `Cn1cc(-c2ccc3nnc(C(F)(F)c4cc5cn(C)nc5cc4F)n3n2)cn1` [Example 37] as the compound, how does the pIC50 [1] read?
Its pIC50 is 7.29.

What about the pIC50 [2] of the same compound?
Its pIC50 is 7.86.

How did the pIC50 [1] turn out when `CC(C)n1cc(-c2ccc3nnc(C(F)(F)c4cc5cn(C)nc5cc4F)n3n2)cn1` [Example 38] was run?
The pIC50 was 7.08.

What about the pIC50 [2] of the same compound?
The pIC50 was 7.36.

Which results are given for `Cn1cc2cc(C(F)(F)c3nnc4ccc(-c5cnn(C6CCOC6)c5)nn34)c(F)cc2n1` (centres unmarked) [Example 39]?
pIC50 [1]: 7.10; pIC50 [2]: 6.69

How did the pIC50 [1] turn out when `COCCn1cc(-c2ccc3nnc(C(F)(F)c4cc5cn(C)nc5cc4F)n3n2)cn1` [Example 40] was run?
Its pIC50 is 6.69.

What about the pIC50 [2] of the same compound?
The pIC50 was 6.87.

Which results are given for `Cn1cc2cc(C(F)(F)c3nnc4ccc(-c5cnn(CC6COCO6)c5)nn34)c(F)cc2n1` (centres unmarked) [Example 41]?
pIC50 [1]: 6.90; pIC50 [2]: 6.46

What does the source list for `CNS(=O)(=O)c1ccc(-c2ccc3nnc(C(F)(F)c4cc5cn(C)nc5cc4F)n3n2)cc1F` [Example 42]?
pIC50 [1]: 6.87; pIC50 [2]: 6.39

`Cn1cc2cc(C(F)(F)c3nnc4ccc(-c5cc(F)c6c(c5)CNC6=O)nn34)c(F)cc2n1` [Example 43] was tested. Which pIC50 [1] did it give?
The pIC50 was 7.63.

What about the pIC50 [2] of the same compound?
The pIC50 was 7.45.

How did the pIC50 [1] turn out when `Cn1cc2cc(C(F)(F)c3nnc4ccc(-c5cnn(C6CC6)c5)nn34)c(F)cc2n1` [Example 44] was run?
The pIC50 was 7.50.

And the pIC50 [2]?
Its pIC50 is 8.11.

`Cn1cc2cc(C(F)(F)C3(Cl)NN=C4C=CC(c5cnn(C6CC6)c5)=CN43)c(F)cc2n1` (centres unmarked) [Example 45] was tested. Which pIC50 [1] did it give?
The pIC50 was 6.56.

And the pIC50 [2]?
Its pIC50 is 6.57.

What does the source list for `Cn1cc2cc(C(F)(F)c3nnc4ccc(-c5cnn(C6CC6)c5)cn34)c(F)cc2n1` [Example 46]?
pIC50 [1]: 6.80; pIC50 [2]: 6.86

`Cn1cc2cc(C(F)(F)c3nnc4ncc(-c5cnn(C6CC6)c5)cn34)c(F)cc2n1` [Example 47] was tested. Which pIC50 [1] did it give?
Its pIC50 is 7.42.

What about the pIC50 [2] of the same compound?
Its pIC50 is 7.66.

Which results are given for `Nc1nc2cc(F)c(Cc3nnc4ccc(-c5cnn(C6CC6)c5)nn34)cc2s1` [Example 49]?
pIC50 [1]: 7.42; pIC50 [2]: 7.19

`Fc1cc2n[nH]cc2cc1C(F)(F)c1nnc2ccc(-c3cnn(C4CC4)c3)nn12` [Example 50] was tested. Which pIC50 [1] did it give?
Its pIC50 is 5.84.

And the pIC50 [2]?
Its pIC50 is 6.28.
